Measured values as given in patent EP0454444A1, “Glutarimide derivatives and herbicides” (NISSAN CHEMICAL INDUSTRIES LTD., priority 1990, dated 1991).

Tests used:
Assay in all cases: Herbicidal effect test by soil treatment
Assay type in all cases: in vivo
[1] = system: annual sedge (Cyperus microiria); details: three weeks after spraying
From the text: (§1) In a plastic box of 15 cm length, 22 cm width and 6 cm depth, there was placed a sterilized dilvial soil, and seeds of barnyardgrass (Echinochloa crusgalli), large crabgrass (Digitaria adscendens), annual sedge (Cyperus microiria), black nightshade (Solanum nigrum L.), hairly galinosoga (Galinsoga ciliat), rorippa ssp. (Rorippa atrovirens), rice (Oryza sativa), corn (Zea mays), wheat (Triticum aestivum), soybean (Glysine max) and cotton (Gossypium herbaceum) were sown mixedly. After covering soil to about 1 cm over the seeds, herbicides were sprayed evenly on the soil surface to predetermined proportions of the active ingredient In spraying, the wettable powder, emulsifiable concentrate, dry flowable or flowable in the above formulation examples were diluted with water and sprayed over the entire surface by means of a small sprayer. Three weeks after spraying, the herbicidal effect on crop plants including rice, corn, wheat, soybean, cotton and various kinds of weeds were examined according to the judgement criteria shown below. Judgement criteria
(§2) The above growth control rates are determined by measuring the top fresh weights of the treated plants and those of the non-treated plants, and culculated from the following formula: [formula]

[2] = system: barnyardgrass (Echinochloa crusgalli); details: three weeks after spraying
From the text: as §1, §2

[3] = system: black nightshade (Solanum nigrum L.); details: three weeks after spraying
From the text: as §1, §2

corn (Zea mays) = details: crop plant, three weeks after spraying
From the text: as §1, §2

[4] = system: cotton (Gossypium herbaceum); details: crop plant, three weeks after spraying
From the text: as §1, §2

[5] = system: hairly galinosoga (Galinsoga ciliat); details: three weeks after spraying
From the text: as §1, §2

[6] = system: large crabgrass (Digitaria adscendens); details: three weeks after spraying
From the text: as §1, §2

rice (Oryza sativa) = details: crop plant, three weeks after spraying
From the text: as §1, §2

[7] = system: rorippa ssp. (Rorippa atrovirens); details: three weeks after spraying
From the text: as §1, §2

soybean (Glysine max) = details: crop plant, three weeks after spraying
From the text: as §1, §2

[8] = system: wheat (Triticum aestivum); details: crop plant, three weeks after spraying
From the text: as §1, §2

Structure (SMILES)	herbicidal effect, K (Cyperus microiria) ([1]; application amount 1.6 g/a)	herbicidal effect, N (Echinochloa crusgalli) ([2]; application amount 1.6 g/a)	herbicidal effect, H (Solanum nigrum L.) ([3]; application amount 1.6 g/a)	herbicidal effect, T (Zea mays) (corn (Zea mays); application amount 1.6 g/a)	herbicidal effect, C (Gossypium herbaceum) ([4]; application amount 1.6 g/a)	herbicidal effect, D (Galinsoga ciliat) ([5]; application amount 1.6 g/a)	herbicidal effect, M (Digitaria adscendens) ([6]; application amount 1.6 g/a)	herbicidal effect, R (Oryza sativa) (rice (Oryza sativa); application amount 1.6 g/a)	herbicidal effect, I (Rorippa indica) ([7]; application amount 1.6 g/a)	herbicidal effect, S (Glysine max) (soybean (Glysine max); application amount 1.6 g/a)	herbicidal effect, W (Triticum vulgare) ([8]; application amount 1.6 g/a)	herbicidal effect, K (Cyperus microiria) ([1]; application amount 0.4 g/a)	herbicidal effect, K (Cyperus microiria) ([1]; application amount 0.8 g/a)	herbicidal effect, N (Echinochloa crusgalli) ([2]; application amount 0.4 g/a)	herbicidal effect, N (Echinochloa crusgalli) ([2]; application amount 0.8 g/a)	herbicidal effect, H (Solanum nigrum L.) ([3]; application amount 0.4 g/a)	herbicidal effect, H (Solanum nigrum L.) ([3]; application amount 0.8 g/a)	herbicidal effect, T (Zea mays) (corn (Zea mays); application amount 0.4 g/a)	herbicidal effect, T (Zea mays) (corn (Zea mays); application amount 0.8 g/a)	herbicidal effect, C (Gossypium herbaceum) ([4]; application amount 0.4 g/a)	also measured
O=C1COc2cc(F)c(N3C(=O)CC(C(F)(F)F)CC3=O)cc2N1 [1-25]	5 (Growth control,rates of more than 90% (almost completely withered))	5 (Growth control,rates of more than 90% (almost completely withered))	5 (Growth control,rates of more than 90% (almost completely withered))	0 (Growth control rates of less than 5% (substantially no effect))	1 (Growth control rates of 5 to 20%)	5 (Growth control,rates of more than 90% (almost completely withered))	5 (Growth control,rates of more than 90% (almost completely withered))	1 (Growth control rates of 5 to 20%)	5 (Growth control,rates of more than 90% (almost completely withered))	0 (Growth control rates of less than 5% (substantially no effect))	0 (Growth control rates of less than 5% (substantially no effect))	–	–	–	–	–	–	–	–	–	–
C#CCN1C(=O)COc2cc(F)c(N3C(=O)CC(C(F)(F)F)CC3=O)cc21 [1-26]	5 (Growth control,rates of more than 90% (almost completely withered))	5 (Growth control,rates of more than 90% (almost completely withered))	5 (Growth control,rates of more than 90% (almost completely withered))	5 (Growth control,rates of more than 90% (almost completely withered))	5 (Growth control,rates of more than 90% (almost completely withered))	5 (Growth control,rates of more than 90% (almost completely withered))	5 (Growth control,rates of more than 90% (almost completely withered))	5 (Growth control,rates of more than 90% (almost completely withered))	5 (Growth control,rates of more than 90% (almost completely withered))	4 (Growth control rates of 70 to 90%)	5 (Growth control,rates of more than 90% (almost completely withered))	5 (Growth control,rates of more than 90% (almost completely withered))	5 (Growth control,rates of more than 90% (almost completely withered))	5 (Growth control,rates of more than 90% (almost completely withered))	5 (Growth control,rates of more than 90% (almost completely withered))	5 (Growth control,rates of more than 90% (almost completely withered))	5 (Growth control,rates of more than 90% (almost completely withered))	4 (Growth control rates of 70 to 90%)	5 (Growth control,rates of more than 90% (almost completely withered))	5 (Growth control,rates of more than 90% (almost completely withered))	herbicidal effect, C (Gossypium herbaceum) ([4]; application amount 0.8 g/a): 5 (Growth control,rates of more than 90% (almost completely withered)); herbicidal effect, D (Galinsoga ciliat) ([5]; application amount 0.4 g/a): 5 (Growth control,rates of more than 90% (almost completely withered)); herbicidal effect, D (Galinsoga ciliat) ([5]; application amount 0.8 g/a): 5 (Growth control,rates of more than 90% (almost completely withered)); herbicidal effect, M (Digitaria adscendens) ([6]; application amount 0.4 g/a): 5 (Growth control,rates of more than 90% (almost completely withered)); herbicidal effect, M (Digitaria adscendens) ([6]; application amount 0.8 g/a): 5 (Growth control,rates of more than 90% (almost completely withered)); herbicidal effect, R (Oryza sativa) (rice (Oryza sativa); application amount 0.4 g/a): 5 (Growth control,rates of more than 90% (almost completely withered)); herbicidal effect, R (Oryza sativa) (rice (Oryza sativa); application amount 0.8 g/a): 5 (Growth control,rates of more than 90% (almost completely withered)); herbicidal effect, I (Rorippa indica) ([7]; application amount 0.4 g/a): 5 (Growth control,rates of more than 90% (almost completely withered)); herbicidal effect, I (Rorippa indica) ([7]; application amount 0.8 g/a): 5 (Growth control,rates of more than 90% (almost completely withered)); herbicidal effect, S (Glysine max) (soybean (Glysine max); application amount 0.4 g/a): 0 (Growth control rates of less than 5% (substantially no effect)); herbicidal effect, S (Glysine max) (soybean (Glysine max); application amount 0.8 g/a): 2 (Growth control rates of 20 to 40%); herbicidal effect, W (Triticum vulgare) ([8]; application amount 0.4 g/a): 4 (Growth control rates of 70 to 90%); herbicidal effect, W (Triticum vulgare) ([8]; application amount 0.8 g/a): 5 (Growth control,rates of more than 90% (almost completely withered))
O=C1COc2cc(F)c(N3C(=O)CC(C(F)(F)F)CC3=O)cc2N1Cc1ccccc1 [1-27]	5 (Growth control,rates of more than 90% (almost completely withered))	5 (Growth control,rates of more than 90% (almost completely withered))	5 (Growth control,rates of more than 90% (almost completely withered))	4 (Growth control rates of 70 to 90%)	2 (Growth control rates of 20 to 40%)	5 (Growth control,rates of more than 90% (almost completely withered))	5 (Growth control,rates of more than 90% (almost completely withered))	4 (Growth control rates of 70 to 90%)	5 (Growth control,rates of more than 90% (almost completely withered))	1 (Growth control rates of 5 to 20%)	5 (Growth control,rates of more than 90% (almost completely withered))	5 (Growth control,rates of more than 90% (almost completely withered))	5 (Growth control,rates of more than 90% (almost completely withered))	5 (Growth control,rates of more than 90% (almost completely withered))	5 (Growth control,rates of more than 90% (almost completely withered))	5 (Growth control,rates of more than 90% (almost completely withered))	5 (Growth control,rates of more than 90% (almost completely withered))	0 (Growth control rates of less than 5% (substantially no effect))	1 (Growth control rates of 5 to 20%)	0 (Growth control rates of less than 5% (substantially no effect))	herbicidal effect, C (Gossypium herbaceum) ([4]; application amount 0.8 g/a): 1 (Growth control rates of 5 to 20%); herbicidal effect, D (Galinsoga ciliat) ([5]; application amount 0.4 g/a): 5 (Growth control,rates of more than 90% (almost completely withered)); herbicidal effect, D (Galinsoga ciliat) ([5]; application amount 0.8 g/a): 5 (Growth control,rates of more than 90% (almost completely withered)); herbicidal effect, M (Digitaria adscendens) ([6]; application amount 0.4 g/a): 5 (Growth control,rates of more than 90% (almost completely withered)); herbicidal effect, M (Digitaria adscendens) ([6]; application amount 0.8 g/a): 5 (Growth control,rates of more than 90% (almost completely withered)); herbicidal effect, R (Oryza sativa) (rice (Oryza sativa); application amount 0.4 g/a): 2 (Growth control rates of 20 to 40%); herbicidal effect, R (Oryza sativa) (rice (Oryza sativa); application amount 0.8 g/a): 3 (Growth control rates of 40 to 70%); herbicidal effect, I (Rorippa indica) ([7]; application amount 0.4 g/a): 5 (Growth control,rates of more than 90% (almost completely withered)); herbicidal effect, I (Rorippa indica) ([7]; application amount 0.8 g/a): 5 (Growth control,rates of more than 90% (almost completely withered)); herbicidal effect, S (Glysine max) (soybean (Glysine max); application amount 0.4 g/a): 0 (Growth control rates of less than 5% (substantially no effect)); herbicidal effect, S (Glysine max) (soybean (Glysine max); application amount 0.8 g/a): 0 (Growth control rates of less than 5% (substantially no effect)); herbicidal effect, W (Triticum vulgare) ([8]; application amount 0.4 g/a): 2 (Growth control rates of 20 to 40%); herbicidal effect, W (Triticum vulgare) ([8]; application amount 0.8 g/a): 4 (Growth control rates of 70 to 90%)
O=C1COc2cc(F)c(N3C(=O)CC(C(F)(F)F)CC3=O)cc2N1CC1CCCCC1 [1-28]	5 (Growth control,rates of more than 90% (almost completely withered))	5 (Growth control,rates of more than 90% (almost completely withered))	5 (Growth control,rates of more than 90% (almost completely withered))	0 (Growth control rates of less than 5% (substantially no effect))	0 (Growth control rates of less than 5% (substantially no effect))	5 (Growth control,rates of more than 90% (almost completely withered))	5 (Growth control,rates of more than 90% (almost completely withered))	0 (Growth control rates of less than 5% (substantially no effect))	5 (Growth control,rates of more than 90% (almost completely withered))	0 (Growth control rates of less than 5% (substantially no effect))	2 (Growth control rates of 20 to 40%)	–	–	–	–	–	–	–	–	–	–
